In US12616753B2, “HSP70 inhibitors and methods of using same” (THE WISTAR INSTITUTE, priority 2020, dated 2026):

Experiments:
MC38 tumors = test: Flow cytometric immunophenotyping of MC38 tumors; type: in vivo, mouse; conditions: 10 mg/kg every 48 hours, 20 days
Protocol: (§1) FIG. 6A: 1×10^6 MC38 cells were injected subcutaneously into the right flank of 6-8-week-old male C57Bl/6 mice. Once tumors reached an approximate volume of 100 mm^3, mice were treated with AP-4-139B (10 mg/kg) every 48 hours. 20 days after the start of treatment, tumors were excised, weighed, minced and digested. Tumor-infiltrating and splenic conventional CD4 (cCD4) (Live CD45^+ DUMP^− CD3^+CD4^+Foxp3^−), Tregs (Live CD45^+ DUMP^− CD3^+CD4^+Foxp3^+), CD8 (Live CD45^+ DUMP^− CD3^+CD8^+) T-cells, and Dendritic Cells (Live CD45^+ DUMP^− CD3^−CD11c^+MHCII^+) numbers were assessed by flow cytometry. * p<0.05, n.s. not significant. n=8 mice per group. FIG. 6B: MC38 and HT-29 cells were treated with the indicated concentrations of AP-4-139B for either 8 or 24 hours; media was collected and subjected to WB for HMGB1. Data shown are representative of three technical replicates. FIG. 6C: MC38 and HT-29 cells were treated with the indicated concentrations of AP-4-139B for three hours and then assayed for extracellular ATP release. […]
Tumors were excised, weighed with an electronic scale, minced and digested in 5 mL HBSS containing 1 mg/ml Type 1 Collagenase from Clostridium histolyticum (Sigma-Aldrich) for 30 minutes at 37° C. […] Samples were analyzed using FACSymphony A3 (BD Biosciences) flow cytometer equipped with 5 lasers. Data were analyzed using FlowJo Version 10 and GraphPad Prism software.

MC38 and HT-29 cells [1] = test: Extracellular ATP release (CellTiter-Glo); type: cell-based
Protocol: FIG. 6A: 1×10^6 MC38 cells were injected subcutaneously into the right flank of 6-8-week-old male C57Bl/6 mice. Once tumors reached an approximate volume of 100 mm^3, mice were treated with AP-4-139B (10 mg/kg) every 48 hours. 20 days after the start of treatment, tumors were excised, weighed, minced and digested. Tumor-infiltrating and splenic conventional CD4 (cCD4) (Live CD45^+ DUMP^− CD3^+CD4^+Foxp3^−), Tregs (Live CD45^+ DUMP^− CD3^+CD4^+Foxp3^+), CD8 (Live CD45^+ DUMP^− CD3^+CD8^+) T-cells, and Dendritic Cells (Live CD45^+ DUMP^− CD3^−CD11c^+MHCII^+) numbers were assessed by flow cytometry. * p<0.05, n.s. not significant. n=8 mice per group. FIG. 6B: MC38 and HT-29 cells were treated with the indicated concentrations of AP-4-139B for either 8 or 24 hours; media was collected and subjected to WB for HMGB1. Data shown are representative of three technical replicates. FIG. 6C: MC38 and HT-29 cells were treated with the indicated concentrations of AP-4-139B for three hours and then assayed for extracellular ATP release. Each graphical representation indicates the mean±the standard deviation of three independent experiments relative to control (DMSO-treated) cells.
FIG. 6D: MC38 cells were treated with 5 μM AP-4-139B for 24 hours and subjected to flow cytometry, using Alexa488-tagged calreticulin antibody. *** p<0.001, n=4 biological replicates performed in duplicate. FIG. 6E: MC38 cells were treated with increasing concentrations of AP-4-139B, G-TPP, 17-AAG or Metformin for 3 hours and then assayed for extracellular ATP release. Three independent cultures were assayed for each treatment, and DMSO-treated cells were used as internal controls. Error bars represent standard deviation (SD).
The XF Cell Mito Stress Test was performed. Briefly, HT-29 (10,000 cells/well), IMR90 (15,000 cells/well), and 1205Lu (15,000 cells/well) were plated in Seahorse 96-well cell culture microplates, treated with the respective inhibitors for 24 hours, and subjected to the Seahorse XF Cell Mito Stress Test, according to the manufacturer's protocol (Agilent Technologies). For extracellular HMGB1 release, 1×10^6 MC38 cells were plated in 10-cm dishes. The next day, cells were treated with the indicated concentrations of AP-4-139B for 8 or 24 hours in serum-free media. Media was collected and spun down at 2,000 rpm for 5 minutes to pellet any remaining cells or debris. Media was then transferred to Amicon Ultra 15, 10K tubes and spun down at 4,000 rpm for 45 minutes, according to the manufacturer's protocol. […] For extracellular ATP release, ATP was measured using the CellTiter-Glo Kit (Promega catalog #G7570). […] 10 μl of CellTiter-Glo Reaction Mix was then mixed with 10 μl of culture media; the luminescence signal was detected using a luminometer.

[2] = test system: IMR90 and CCD 841 CoN cells; test: Seahorse XF Cell Mito Stress Test, normal cells; type: cell-based, human; conditions: 500 nM (sublethal), 24 hours
Protocol: FIG. 2A: IMR90 cells (non-transformed fibroblasts), 1205Lu (melanoma), and HT-29 (CRC) cancer cells were treated with sub-lethal doses (500 nM) of the HSP70 inhibitors PET-16 (positive control) or AP-4-139B for 24 hours. Cells were then subjected to the Seahorse Mito Stress Test Assay. Injections were Oligomycin (1 μM, line A), FCPP (0.5-1 μM, line B), and Rotenone/Antimycin A (1 μM, line C). Each graphical representation indicates the mean±standard deviation of a minimum of 5 technical replicates. […] Each experiment was performed in triplicate and independently repeated twice. FIGS. 2B-2D: Basal Oxygen Consumption Rate (ORC) (FIG. 2B), Maximal OCR (FIG. 2C), and ATP production (FIG. 2D) were analyzed in IMR90 fibroblasts, non-transformed colonic epithelial cells (CCD 841 CoN), 1205Lu melanoma cells and HT-29 CRC cells, in the presence or absence of 500 nM HSP70 inhibitors or negative control (VY-3-277). All experiments were performed in triplicate, with each group containing 5-6 technical replicates. ** p<0.01, *** p<0.001, n.s. not significant.
(§2) The XF Cell Mito Stress Test was performed. […] For extracellular ATP release, ATP was measured using the CellTiter-Glo Kit (Promega catalog #G7570). […] 10 μl of CellTiter-Glo Reaction Mix was then mixed with 10 μl of culture media; the luminescence signal was detected using a luminometer.

MC38 and HT-29 cells [3] = test: Extracellular HMGB1 release; type: cell-based; conditions: 8 or 24 hours
Protocol: as §1, §2

| Compound | abundance of immune cell types in spleens (MC38 tumors) | immune cell infiltrates (CD4+ T cell, CD8+ T cell, dendritic cells, Tregs) in tumors (MC38 tumors) | ATP release (MC38 and HT-29 cells [1]; MC38 and HT-29, three hours) | ATP release, comparison of compounds (MC38 and HT-29 cells [1]; MC38 cells, increasing concentrations, 3 hours) | mitochondrial function in normal cells [2] | HMGB1 secretion (MC38 and HT-29 cells [3]) |
| --- | --- | --- | --- | --- | --- | --- |
| c1ccc(-c2cn3nc(CCCCCC[P+](c4ccccc4)(c4ccccc4)c4ccccc4)sc3n2)cc1 [AP-4-139B, Triphenyl(6-(6-phenylimidazo[2,1-b][1,3,4]thiadiazol-2-yl)hexyl)phosphonium bromide] | no changes in abundance | significantly increased immune cell infiltrates | ATP release | most significant release of ATP | largely unaffected | reproducibly induced HMGB1 secretion |
| C(#C[P+](c1ccccc1)(c1ccccc1)c1ccccc1)c1ccccc1 [PET-16, Triphenyl(phenylethynyl)phosphonium bromide, reference compound] |  |  |  |  | largely unaffected |  |
